Data reported in patent US11826414B2, “Measurement of afucosylated IgG Fc glycans and related vaccination methods” (priority 2017, dated 2023).
Where two headings read alike, the source gives them in different places.

Assays:
dengue 2 [1] = type: cell-based, dengue virus; conditions: for Inhibition of dengue 2 infection (ADE): FcγRIIa+FcγRIIIa+ monocytes, pre-incubation with inhibitor
dengue 2 [2] = type: cell-based, dengue virus; conditions: FcγRIIa+FcγRIIIa− U937 cells treated with PMA/ionomycin
[3] = tested on: H3N2 influenza virus (IAV); type: cell-based; conditions: DC-SIGN U937 cells, no antibodies present
[4] = tested on: FcγRIIa^+FcγRIIIa^+ monocytes; conditions: at concentrations tested
[5] = tested on: H1N1 influenza virus (IAV); type: cell-based; conditions: DC-SIGN U937 cells, no antibodies present
Zika virus (ZIKV) = type: cell-based; conditions: DC-SIGN U937 cells, no antibodies present

Compound	Inhibition of dengue 2 infection (ADE) (dengue 2 [1])	Inhibition of dengue 2 infection (ADE) (dengue 2 [1]; listed as PRT)	Inhibition of enhanced infection after PMA/ionomycin treatment (dengue 2 [2])	Inhibition of infection [3]	Cell viability [4]	Inhibition of infection [5]	Inhibition of infection (Zika virus (ZIKV))	Inhibition of dengue infection (dengue 2 [1]; 5 μM peptide, all MOIs tested) [%]	Inhibition of dengue 2 replication, time of treatment (dengue 2 [1]; treatment of cells up to 2 hours following infection)
Cc1cccc(Nc2nc(N[C@@H]3CCCC[C@@H]3N)ncc2C(N)=O)c1 [PRT318]	inhibited in FcγRIIa^+FcγRIIIa^+ monocytes in a concentration-dependent manner	inhibited dengue 2 infection in FcγRIIa+FcγRIIIa+ monocytes in a concentration-dependent manner							
11R-VIVIT	inhibited dengue 2 infection in a concentration-dependent manner		could be inhibited	did not inhibit	unaffected	did not inhibit	did not inhibit	> 70	inhibited dengue 2 replication
